Measured values reported in paper PMC6114901, “An automated screening method for detecting compounds with goitrogenic activity using transgenic zebrafish embryos” (PLoS ONE, 2018).
Entries after “also recorded” stand apart in the source; their conditions may differ.

System: thyroglobulin (tg:mCherry reporter gene)
Test: animal or person
Experimental: In order to avoid interference of test chemicals with early thyroid gland development, zebrafish embryos were cultured in exposure medium until 48 hours post fertilization (hpf). Subsequently, they were exposed to seven known thyroid endocrine disrupters for 3 days (48 to 120 hpf). The non-goitrogenic compound 3,4-dichloroaniline, that is used as reference compound in the zebrafish acute embryo toxicity test was used as negative control. […] No solvents were used. […] Five concentrations and one control were tested per compound and replicate. In the second replicate the range of concentration was adjusted to improve fitting of concentration-response curves. […] Given the lack of appropriate spectral properties stability of exposure concentrations was not analysed for potassium perchlorate. Embryos were kept in the incubator at 26°C and a 14:10 hours light:dark cycle. The exposure was conducted in crystallisation dishes covered with watchmaker glasses with 30 embryos in 30 ml exposure medium (for exposure medium refer to [26]).
Embryos were positioned ventrally toward the microscope objective. Per embryo a bright field image, an autofocus fluorescence image and a Z-stack of 9 images were obtained. The Z-stack was required in case of autofocus failure and manual selection of the focal plane. Fluorescence images were obtained with 400 ms of fluorescent light exposure at maximal light intensity and a gain of 1. […] However, care was taken, that at least 10 images per concentration and replicates were assessed. To avoid a time bias during the analysis the sequence of wells for analysis was arranged in order to obtain a uniform distribution over the entire period of analysis.
The images were analysed using a KNIME workflow (Version 3.3.3., [29]) with the extension “KNIME image processing”. In brief, images were loaded into the workflow and the background was removed automatically using the “rolling ball” procedure of the image J plugin (rolling ball size set to 50 pixels). Subsequently the area containing the thyroid gland was manually selected by drawing a rectangle around the appropriate region using the interactive annotation node. […] If possible the autofocus images were used. In case that the thyroid gland was out of focus due to the presence of autofluorescing pigment cells, an appropriate image from the Z-stack was selected. All subsequent steps were conducted without any user interaction. […] Finally the sum of pixel (reflecting area of the thyroid gland and intensity of fluorescence) was calculated for the labeled area and used as a proxy of fluorescence intensity (see Fig 1 for an overview of the workflow). For each replicate the sum was of pixels was normalized by setting controls to the value of one. For data of individual embryos see S4 Table. The KNIME workflow used for image analysis is provided as supplement file (S1 Workflow).
To characterize the potency of the investigated goitrogenic compounds, we calculated EC50 values of tg:mcherry fluorescence using the pixel sum obtained from image analysis. For each replicate the fluorescence intensity was normalized by dividing the mean fluorescence intensity of each concentration with the mean control fluorescence intensity. Concentration-response curves of tgmcherry fluorescence were fitted to the data using the Hill-slope equation (Eq 1) and used to estimate EC50 values.
The parameter Min was set to 1 and the slope (p) and the maximum fluorescence (Max) were estimated.

Compound | effect on tg:mCherry fluorescence (zebrafish, in vivo) | Normalised mean pixel sum (0.13 µM, replicate 2) | Normalised mean pixel sum (0.493827 µM, replicate 1) | Normalised mean pixel sum (1.91 µM, replicate 2) | Normalised mean pixel sum (7.40741 µM, replicate 1) | Normalised mean pixel sum (29 µM, replicate 2) | Normalised mean pixel sum (111.111 µM, replicate 1) | Normalised mean pixel sum (430 µM, replicate 2) | Normalised mean pixel sum (1666.67 µM, replicate 1) | Normalised mean pixel sum (6455 µM, replicate 2) | Slope (Hill slope of tg:mCherry concentration-response curve) | BMD 20 (concentration at which a 20% increase of tg:mCherry fluorescence was observed) [µM] | EC50 (read-out: EC50 (tg:mCherry induction), exposure 48–120 hpf, Hill-slope model) [µM] | TDI (thyroid disruption index = LC50/EC50 tg:mCherry induction)
Nc1ccc(Cl)c(Cl)c1 [3,4-DCA, 3,4-dichloroaniline] | decreased the fluorescence signal; also recorded: did not induce tg:mCherry fluorescence but led to a concentration dependent reduction in fluorescence | – | – | – | – | – | – | – | – | – | – | – | – | –
[K+].[O-][Cl+3]([O-])([O-])[O-] [Potassium perchlorate, potassium perchlorate] | – | 0.90 | 1.06 | 1.30 | 0.86 | 1.75 | 1.38 | 1.97 | 2.55 | 2.16 | 0.69 | 37.6 | 137 | 241
